Results taken from the supplement of paper PMC13207355.

What was measured:
Conditions in all cases: exposure time: 72 h
E21 [1] = patient-derived glioblastoma stem cells of mesenchymal subtype; test: phenotypic distance (Euclidean, principal components) from DMSO controls (arbitrary units); higher = stronger morphological change
E13 [2] = patient-derived glioblastoma stem cells of classical subtype; test: as above
E28 [3] = patient-derived glioblastoma stem cells of classical subtype; test: as above
E34 [4] = patient-derived glioblastoma stem cells of proneural subtype; test: as above
E31 [5] = patient-derived glioblastoma stem cells of proneural subtype; test: as above
E57 [6] = patient-derived glioblastoma stem cells of mesenchymal subtype; test: as above
FT3469 [7] = normal neural stem cell line; test: as above
E21 [8] = test: surviving fraction (nuclei count normalised to DMSO); higher = more cells surviving (less toxic)
E13 [9] = test: as above
E28 [10] = test: as above
E34 [11] = test: as above
E31 [12] = test: as above
E57 [13] = test: as above
FT3469 [14] = test: as above
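For phenotypic distance (Euclidean, principal components) from DMSO controls in this document: cell Painting imaging in 384-well plates, CellProfiler features reduced to at least 20 principal components, Euclidean distance versus same-plate DMSO vehicle wells (0.1% v/v), median over six images per well.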
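For surviving fraction (nuclei count normalised to DMSO) in this document: nuclei counted by high-content imaging of Hoechst-stained cells in laminin-coated 384-well plates, relative to 0.1% DMSO vehicle wells, with staurosporine as cell-death control.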

CCN1CCN(C(=O)Cc2ccc(Nc3ncc(F)c(Nc4ccc(C(=O)Nc5ccccc5Cl)cc4)n3)cc2)CC1 [Aurora-A Inhibitor I]
Conditions | phenotypic distance | surviving fraction
E13 [2], 4.1 nM | 0.68 | –
E13 [2], 12.3 nM | 0.752 | –
E13 [2], 37 nM | 1.14 | –
E13 [2], 111.1 nM | 1.23 | –
E13 [2], 333.3 nM | 1.57 | –
E13 [2], 1000 nM | 2.01 | –
E13 [2], 3000 nM | 2.52 | –
E13 [9], 4.1 nM | – | 0.898
E13 [9], 12.3 nM | – | 0.858
E13 [9], 37 nM | – | 0.898
E13 [9], 111.1 nM | – | 0.786
E13 [9], 333.3 nM | – | 0.755
E13 [9], 1000 nM | – | 0.643
E13 [9], 3000 nM | – | 0.588
E21 [1], 4.1 nM | 0.463 | –
E21 [1], 12.3 nM | 0.798 | –
E21 [1], 37 nM | 0.695 | –
E21 [1], 111.1 nM | 0.686 | –
E21 [1], 333.3 nM | 0.809 | –
E21 [1], 1000 nM | 3.84 | –
E21 [1], 3000 nM | 8.57 | –
E21 [8], 4.1 nM | – | 0.962
E21 [8], 12.3 nM | – | 0.968
E21 [8], 37 nM | – | 0.937
E21 [8], 111.1 nM | – | 1.04
E21 [8], 333.3 nM | – | 0.873
E21 [8], 1000 nM | – | 0.369
E21 [8], 3000 nM | – | 0.0545
E28 [3], 4.1 nM | 0.837 | –
E28 [3], 12.3 nM | 1.2 | –
E28 [3], 37 nM | 0.715 | –
E28 [3], 111.1 nM | 0.655 | –
E28 [3], 333.3 nM | 1.3 | –
E28 [3], 1000 nM | 5.35 | –
E28 [3], 3000 nM | 7.22 | –
E28 [10], 4.1 nM | – | 0.826
E28 [10], 12.3 nM | – | 1.04
E28 [10], 37 nM | – | 0.98
E28 [10], 111.1 nM | – | 1.01
E28 [10], 333.3 nM | – | 0.732
E28 [10], 1000 nM | – | 0.295
E28 [10], 3000 nM | – | 0.265
E31 [5], 4.1 nM | 0.624 | –
E31 [5], 12.3 nM | 0.904 | –
E31 [5], 37 nM | 0.48 | –
E31 [5], 111.1 nM | 0.975 | –
E31 [5], 333.3 nM | 1.09 | –
E31 [5], 1000 nM | 6.37 | –
E31 [5], 3000 nM | 11.8 | –
E31 [12], 4.1 nM | – | 0.968
E31 [12], 12.3 nM | – | 0.879
E31 [12], 37 nM | – | 0.989
E31 [12], 111.1 nM | – | 0.819
E31 [12], 333.3 nM | – | 0.602
E31 [12], 1000 nM | – | 0.0846
E31 [12], 3000 nM | – | 0.0618
E34 [4], 4.1 nM | 0.739 | –
E34 [4], 12.3 nM | 0.951 | –
E34 [4], 37 nM | 0.479 | –
E34 [4], 111.1 nM | 0.728 | –
E34 [4], 333.3 nM | 0.971 | –
E34 [4], 1000 nM | 1.96 | –
E34 [4], 3000 nM | 9.28 | –
E34 [11], 4.1 nM | – | 0.935
E34 [11], 12.3 nM | – | 0.848
E34 [11], 37 nM | – | 0.988
E34 [11], 111.1 nM | – | 0.958
E34 [11], 333.3 nM | – | 0.736
E34 [11], 1000 nM | – | 0.635
E34 [11], 3000 nM | – | 0.198
E57 [6], 4.1 nM | 0.556 | –
E57 [6], 12.3 nM | 1.22 | –
E57 [6], 37 nM | 0.495 | –
E57 [6], 111.1 nM | 0.921 | –
E57 [6], 333.3 nM | 1.17 | –
E57 [6], 1000 nM | 3.49 | –
E57 [6], 3000 nM | 11.6 | –
E57 [13], 4.1 nM | – | 0.996
E57 [13], 12.3 nM | – | 0.998
E57 [13], 37 nM | – | 0.968
E57 [13], 111.1 nM | – | 1.03
E57 [13], 333.3 nM | – | 0.905
E57 [13], 1000 nM | – | 0.513
E57 [13], 3000 nM | – | 0.0372
FT3469 [7], 4.1 nM | 0.518 | –
FT3469 [7], 12.3 nM | 0.954 | –
FT3469 [7], 37 nM | 0.712 | –
FT3469 [7], 111.1 nM | 0.933 | –
FT3469 [7], 333.3 nM | 0.835 | –
FT3469 [7], 1000 nM | 1.89 | –
FT3469 [7], 3000 nM | 13.2 | –
FT3469 [14], 4.1 nM | – | 1.01
FT3469 [14], 12.3 nM | – | 0.895
FT3469 [14], 37 nM | – | 0.866
FT3469 [14], 111.1 nM | – | 0.883
FT3469 [14], 333.3 nM | – | 1.04
FT3469 [14], 1000 nM | – | 0.483
FT3469 [14], 3000 nM | – | 0.394
